In US20230040415A1 (PureTech LYT 100, Inc., priority 2020, published 2023):
Where two headings read alike, the source gives them in different places.

Columns and labels:
[1] = test system: Primary Mouse Lung Fibroblasts; assay: TGF-β-induced insoluble collagen synthesis, 6-well plate format (Sircol); type: cell-based; conditions: Fibroblast, TGF-β 5 ng/ml, 72 hrs, p=0.026, read-out: inhibition of TGF-β-induced total collagen
Description: One hundred thousand Primary Mouse Lung Fibroblasts were plated in 6-well plates and incubated in complete DMEM until they reached confluency. The incubation medium was removed and complete DMEM containing Prolin (10 μM) and Ascorbic acid (20 μg/ml) was added.
Supernatant was removed, cells were washed with cold PBS, 1 ml Sircol reagent was added. The Sircol reagent contains the collagen binding dye Sirius red. The cells were scraped off with Sircol reagent and samples were shaken for 5 h at room temperature (RT), centrifuged at 10,000 rpm for 5 min, supernatant was removed, the pellet was washed in 0.5 M acetic acid to remove unbound dye, and recentrifuged at 10,000 rpm for 5 min, supernatant was removed and the final pellet was dissolved in 1 ml 0.5M NaOH and shaken at RT for 5 h. A sample of 100 μl of resultant solution was placed in 96-well. The color reaction was assessed by optical density at a wave length of 600 nm.

[2] = test system: NASH mice; assay: NASH mouse model (streptozotocin + high fat diet), liver histology; type: in vivo; conditions: n = 8
Source text: Non-alcoholic steatohepatitis (NASH) is characterized by lobular inflammation, hepatocyte ballooning and degeneration progressing to liver fibrosis. […] In addition, nine non-NASH mice were fed with a normal diet and monitored.

[3] = test system: Primary Mouse Lung Fibroblasts; assay: TGF-β-induced insoluble collagen synthesis, 96-well plate format (Sircol); type: cell-based; conditions: 500 μM, TGF-β 5 ng/ml, 72 hours, FIG. 4C; p=0.0003
Description: Approximately 5,000 primary mouse fibroblasts were plated in complete DMEM in 96 well plates and incubated for 3 days at which time the cultures achieved confluency. After cells reached confluency, the medium was removed and fresh DMEM supplemented with ascorbic acid (20 μg/ml) and prolin (10 μMol) was added. […] One hour later, TGF-β was added to the appropriate cultures at a final concentration of 5 ng/ml. After 72 hours, the media was replaced with a 0.5% glutaraldehyde solution. After 30 minutes, the adherent cells were washed and subsequently incubated with acetic acid at a final concentration of 0.5M. After a 30 min room temperature incubation, and subsequent washing steps, the wells were incubated with Sircol reagent. After 5 hours, the unbound dye was removed and the plates were washed and allowed to dry. To extract collagen-bound Sircol, 100 μL of alkaline solution (0.5M NaOH) was added and plates were shaken for 1 h on rotary shaker at room temperature. Absorbance at 600 nm was determined to detect bound collagen.

[4] = test system: L929 cells; assay: TGF-induced collagen synthesis in L929 cells, 96-well plate format (SIRCOL); type: cell-based; conditions: 500 μM
Description: Five thousand L929 cells were plated in complete DMEN and incubated until confluency for 3 days. Medium was removed and complete DMEM containing Prolin (20 μg/ml) and ascorbic acid (10 μM) was added. […] Cells were further incubated for 72 hrs. Supernatant was removed, 0.5% gluteraldehyde was added for 30 min at RT, removed, washed 3× with dd water, 0.5 M acetic acid was added for 30 min at RT, removed, washed with water, air dried and 100 μl SIRCOL dye was added for 5 h at RT. Dye was removed, plate was washed extensively under running water, air dried and 200 μl of 0.5 M NaOH was added, plates were shaken at RT for 1 h, and OD was determined at 600 nm.

[5] = test system: L929 cells; assay: TGF-induced soluble collagen synthesis in L929 cells (ELISA); type: cell-based; conditions: 500 μM
Description: Five thousand L929 cells were plated in complete DMEN and incubated until confluency for 3 days. Medium was removed and complete DMEM containing Prolin (20 μg/ml) and ascorbic acid (10 μM) was added. […] Cells were further incubated for 72 hrs. 200 μl supernatant of 96-well SIRCOL plate was placed onto ELISA plate and incubated 0/N. Next day, supernatant was removed and 100 ul of 1% BSA in PBST was added and incubated for 2 h at RT, BSA was removed, plate was washed 3× with 200 μl of PBST, and anti-collagen type I a.b was added at 1:2000 dilution (prepared in %1 BSA in PBST), incubated at RT for 1 h, primary a.b was removed, plate was washed 3× with 200 μl PBST, and secondary anti-goat HRP was added at 1:2000 dilution, incubate at RT for 1 h, removed, plate was washed 3× with 200 μl PBST and 100 μl of TMB solution was added for color development for 15 min, then 100 μl of 2 N H2SO4 was added to stop the reaction and O.D of developed yellow color was determined at 450 nm.

[6] = Food effect study Part 2, single 500 mg dose fed vs fasted; type: in vivo, human; conditions: human, plasma, oral, 500 mg, LYT-100 @500 mg single dose, analyte = label
Description: The comparison will be based on Day 1, Day 2 and Day 3 PK plasma samples after the first dose of study drug on Day 1 under fast and fed conditions of Part 2.
Subjects will be admitted to the CRU on Day −1 and will fast overnight for at least 10 h.

[7] = test system: Primary Mouse Lung Fibroblasts; assay: TGF-β-induced soluble fibronectin ELISA; type: cell-based; conditions: Fibroblast
Description: (§1) Approximately 5,000 primary mouse lung fibroblasts were plated in complete DMEM in 96 well plates and incubated for 3 days at which time the cultures achieved confluency. After cells reached to confluency, medium was removed and fresh DMEM supplemented with ascorbic acid (20 μg/ml) and prolin (10 μM) was added. […] One hour later, TGF-β (5 ng/ml) was added to the appropriate cultures at a final concentration. After 72 hours, 200 μl samples of the supernatant were placed onto an ELISA plate and incubated overnight. After blocking with %1 BSA for 2 h, plates were incubated with either an anti-collagen type I antibody or an anti-fibronectin antibody.
(§2) The plates were washed after 1 hour and incubated with secondary horseradish peroxidase-conjugated antibodies (anti-goat for the collagen antibody, anti-rabbit for the fibronectin antibody). After a series of washing steps the color reagent TMB (3,3′,5,5′-Tetramethylbenzidine) was added and 15 minutes later the reactions were terminated with equal volumes of 2 N H2SO4. The levels of soluble collagen and fibronectin were determined by evaluating absorbance at 450 nm.

[8] = test system: Primary Mouse Lung Fibroblasts; assay: TGF-β-induced soluble collagen ELISA; type: cell-based; conditions: Fibroblast
Description: as §1, §2

Question: For `[2H]C([2H])([2H])c1ccc(=O)n(-c2ccccc2)c1` [LYT-100, 5-(methyl-d3)-1-phenylpyridin-2-(1H)-one], which inhibition at 500 µM [1] is on record?
Answer: 15%

Question: And the “NAS (mean ± SD)” value ([2]; 30 mg/kg twice daily oral)?
Answer: 4.0 ± 1.1

Question: And the “Hepatocyte ballooning score 2 (Many cells/prominent ballooning), number of animals” value [2]?
Answer: 8

Question: And the “Lobular Inflammation score 1 (<2 foci/200x), number of animals” value [2]?
Answer: 5

Question: And the “Lobular Inflammation score 2 (2-4 foci/200x), number of animals” value [2]?
Answer: 3

Question: What about the “Steatosis score 0 (<5%), number of animals” value [2] of the same compound?
Answer: 4

Question: What about the “Steatosis score 1 (5-33%), number of animals” value [2] of the same compound?
Answer: 3

Question: What about the “Steatosis score 2 (>33%-66%), number of animals” value [2] of the same compound?
Answer: 1

Question: What about the “diminution of TGF-β-stimulated insoluble collagen accumulation” value [3] of the same compound?
Answer: 24%

Question: What about the “total collagen level in the absence of TGF-β induction” value [4] of the same compound?
Answer: significantly inhibited or reduced

Question: And the “TGF-β-induced total collagen levels” value ([4]; TGF-β 5 ng/ml, 72 hrs)?
Answer: significantly inhibited or reduced

Question: And the “soluble collagen levels in the absence of TGF-β-induction” value [5]?
Answer: significantly reduced

Question: What about the “TGF-β-induced soluble collagen levels” value ([5]; TGF-β 5 ng/ml, 72 hrs) of the same compound?
Answer: significantly inhibits

Question: What about the AUC ([6]; read-out: AUC, Fasted) of the same compound?
Answer: 60.9 µg·h/mL

Question: What about the AUC ([6]; read-out: AUC, Fed) of the same compound?
Answer: 49.5 µg·h/mL

Question: And the Cmax ([6]; read-out: Cmax, Fasted)?
Answer: 10.3 µg/mL

Question: And the Cmax ([6]; read-out: Cmax, Fed)?
Answer: 7.9 µg/mL

Question: And the inhibition at 500 µM ([7]; TGF-β 5 ng/ml, 72 hours, p=0.0185, read-out: inhibition of TGF-β-dependent induction of soluble fibronectin)?
Answer: 11%

Question: And the inhibition at 500 µM ([7]; no TGF-β, p=0.03, read-out: inhibition of background level of soluble fibronectin)?
Answer: 10%

Question: And the inhibition at 500 µM ([8]; TGF-β 5 ng/ml, 72 hours, p=0.0001, read-out: inhibition of TGF-β-dependent increase of soluble collagen)?
Answer: 36%

Question: And the inhibition at 500 µM ([8]; no TGF-β, p=0.0115, read-out: inhibition of background level of soluble collagen)?
Answer: 23%
